Values quoted from earlier work, collected in patent publication US20200016159A1, “N3-CYCLICALLY SUBSTITUTED THIENOURACILS AND USE THEREOF” (Bayer Aktiengesellschaft, priority 2016, published 2020).

Experiments:
[1] = tested on: prostate cancer cell lines; details: cited from earlier work
melanoma animal models = details: cited from earlier work
colon cancer cell lines = details: inhibition of the A2b receptor-mediated adenosine signalling pathway; cited from earlier work

Compound | growth of several prostate cancer cell lines [1] | tumour growth and metastasis (melanoma animal models) | growth of colon cancer cell lines (colon cancer cell lines)
CCCn1c(=O)[nH]c2nc(-c3ccc(S(=O)(=O)N4CCN(c5ccc(Cl)cc5)CC4)cc3)[nH]c2c1=O [PSB603] | reduces the growth | reduction in tumour growth and metastasis | 
CCCn1c(=O)c2[nH]c(-c3ccc(OCC(=O)Nc4ccc(C#N)cc4)cc3)nc2n(CCC)c1=O [MRS1754] |  |  | reduced growth
